For assay [1], the target named is binding between Nrf2 and Keap1 (Homo sapiens (Human), UniProt Q14145). The assay is described as follows: FP assay (in vitro): inhibition of Nrf2-Keap1 binding by fluorescence polarization. Conditions: GST-fused human Keap1 (325-642) 20 nM, FITC-labeled Nrf2 peptide 10 nM, 2 hr at room temperature.
Assay [2] relates to NQO1 activity in Hepa1c1c7 cells. As to the kind of experiment: NAD(P)H: quinone oxidoreductase-1 (NQO1) enzyme induction assay (in vitro). Type of assay: cell-based, mouse. Particulars: Mus musculus, Hepa-1c1c7, NQO1 activity with 400 nM test compound as a ratio from the base without compound, about 48 hr. The method, then: The NQO1 assay was performed based on a previous report (Methods in Enzymology 2004; 382: 243-258). Hepa1c1c7 cells (mouse hepatocyte cell line, ATCC, cat. no. CRL-2026) were cultured in D-MEM medium containing 10% FBS and 1% penicillin/streptomycin (5% CO2, 37° C.), and seeded into 96-well plates (Corning REF. 353072) at 1×10^4 cells/well. A portion of the wells were prepared with medium only for background measurement without seeding cells. The next day, 400 nM of the test compound (0.004% of the final concentration in DMSO) dissolved in DMSO was added thereto, and the wells were incubated for about 48 hr. A well without adding the test compound was prepared for base activity assay in part. […] After the medium was removed, 50 μL of the cell lysate was added and incubated at 37° C. for 10 minutes, followed by shaking at room temperature for 10 minutes. 200 μL of reaction solution was added thereto, and allowed to stand for 5 minutes at room temperature. 50 μL of the stop solution was added thereto, and absorbance was measured at 610 nm on a SpectraMax PLUS384 (Molecular devices) or […] Pharma Biomedical). The test results were analyzed in Excel, and the NQO1 activity upon addition of 400 nM of test compound was calculated as a ratio from the base without the compound. NQO1 activity ratio when test compound is added=(absorbance when test compound is added-absorbance of medium only)/(absorbance without addition of compound-absorbance of medium only) [numerical formula 2] The results of each test compound in this test are shown in the following Table 2 (A:5<NQO1 activity ratio, B:3<NQO1 activity ratio≤5).

Structures are written as SMILES. Some results are limits rather than exact numbers.

binding between Nrf2 and Keap1, sequence (Q14145 325-624 limits assumed): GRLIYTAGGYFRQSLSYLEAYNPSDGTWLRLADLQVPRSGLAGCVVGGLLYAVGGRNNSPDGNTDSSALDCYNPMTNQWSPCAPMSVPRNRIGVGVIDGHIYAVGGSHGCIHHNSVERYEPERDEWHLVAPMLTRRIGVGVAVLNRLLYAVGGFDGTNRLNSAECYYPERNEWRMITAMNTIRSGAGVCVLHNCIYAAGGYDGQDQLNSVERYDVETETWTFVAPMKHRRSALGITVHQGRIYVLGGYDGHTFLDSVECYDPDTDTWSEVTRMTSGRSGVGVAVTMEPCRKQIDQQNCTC

The compound `CC[C@@H]1CN(Cc2cc(C(CC(=O)O)c3ccc4c(nnn4C)c3Cl)cc3c2CCC3)S(=O)(=O)c2cc(Cl)cnc2O1` (stereo partly drawn) [Example 29, 3-(7-{[(4R)-8-Chloro-4-ethyl-1,1-dioxido-3,4-dihydro-2H-pyrido[2,3-b][1,4,5]oxathiazepin-2-yl]methyl}-2,3-dihydro-1H-inden-5-yl)-3-(4-chloro-1-methyl-1H-benzotriazol-5-yl)propanoic acid] had an IC50 in assay [1] of no more than 0.01 µM. The fold induction at 0.4 µM in assay [2] was greater than 5.
The corresponding values for `CC[C@@H]1CN(Cc2cc([C@H](CC(=O)O)c3cc(Cl)c4c(nnn4C)c3C)cc3ccsc23)S(=O)(=O)c2cc(Cl)cnc2O1` [Example 30, (3S)-3-(7-Chloro-1,4-dimethyl-1H-benzotriazol-5-yl)-3-(7-{[(4R)-8-chloro-4-ethyl-1,1-dioxido-3,4-dihydro-2H-pyrido[2,3-b][1,4,5]oxathiazepin-2-yl]methyl}-1-benzothiophen-5-yl)propanoic acid] are no more than 0.01 µM and 3 to 5.
The corresponding values for `CC[C@@H]1CN(Cc2cc([C@@H](CC(=O)O)c3cc(Cl)c4c(nnn4C)c3C)cc3ccsc23)S(=O)(=O)c2cc(Cl)cnc2O1` [Example 31, (3R)-3-(7-Chloro-1,4-dimethyl-1H-benzotriazol-5-yl)-3-(7-{[(4R)-8-chloro-4-ethyl-1,1-dioxido-3,4-dihydro-2H-pyrido[2,3-b][1,4,5]oxathiazepin-2-yl]methyl}-1-benzothiophen-5-yl)propanoic acid] are no more than 0.01 µM and greater than 5.
The corresponding values for `CC[C@@H]1CN(Cc2cc([C@@H](CC(=O)O)c3cc(OC(F)F)c4c(nnn4C)c3C)cc3ccsc23)S(=O)(=O)c2cc(Cl)cnc2O1` [Example 32, (3R)-3-(7-{[(4R)-8-Chloro-4-ethyl-1,1-dioxido-3,4-dihydro-2H-pyrido[2,3-b][1,4,5]oxathiazepin-2-yl]methyl}-1-benzothiophen-5-yl)-3-[7-(difluoromethoxy)-1,4-dimethyl-1H-benzotriazol-5-yl]propanoic acid] are no more than 0.01 µM and greater than 5.
Compound `Cc1c(C(CC(=O)O)c2cc3c(c(CN4CC(C)(C)Oc5ncccc5S4(=O)=O)c2)CCC3)ccc2c1nnn2C` (stereo not shown) [Example 34, 3-(1,4-Dimethyl-1H-benzotriazol-5-yl)-3-{7-[(4,4-dimethyl-1,1-dioxido-3,4-dihydro-2H-pyrido[2,3-b][1,4,5]oxathiazepin-2-yl)methyl]-2,3-dihydro-1H-inden-5-yl}propanoic acid] showed a 50% inhibitory concentration (IC50) in assay [1] of 0.01 to 0.03 µM. Besides, the fold induction at 0.4 µM in assay [2] was greater than 5.
In the case of `CC[C@@H]1CN(Cc2cc([C@@H](CC(=O)O)c3cc(C4CC4)c4c(nnn4C)c3C)cc3ccsc23)S(=O)(=O)c2cc(Cl)cnc2O1` [Example 37, (3R)-3-(7-{[(4R)-8-Chloro-4-ethyl-1,1-dioxido-3,4-dihydro-2H-pyrido[2,3-b][1,4,5]oxathiazepin-2-yl]methyl}-1-benzothiophen-5-yl)-3-(7-cyclopropyl-1,4-dimethyl-1H-benzotriazol-5-yl)propanoic acid], the half-inhibitory concentration (IC50) in assay [1] is no more than 0.01 µM. Besides, in assay [2], the fold induction at 0.4 µM was in the range of 3 to 5.
Taken in the same sequence, the figures for `CC[C@@H]1CN(Cc2cc([C@@H](c3ccc4c(nnn4C)c3C)C(C)(C)C(=O)O)cc3c2CCC3)S(=O)(=O)c2cc(Cl)cnc2O1` [Example 38, (3S)-3-(7-{[(4R)-8-Chloro-4-ethyl-1,1-dioxido-3,4-dihydro-2H-pyrido[2,3-b][1,4,5]oxathiazepin-2-yl]methyl}-2,3-dihydro-1H-inden-5-yl)-3-(1,4-dimethyl-1H-benzotriazol-5-yl)-2,2-dimethylpropanoic acid] were no more than 0.01 µM and greater than 5.
The corresponding values for `CC[C@@H]1CN(Cc2cc([C@@H](CC(=O)O)c3cc(C4CC4)c4c(nnn4C)c3C)cc3c2CCC3)S(=O)(=O)c2cc(Cl)cnc2O1` [Example 39, (3R)-3-(7-{[(4R)-8-Chloro-4-ethyl-1,1-dioxido-3,4-dihydro-2H-pyrido[2,3-b][1,4,5]oxathiazepin-2-yl]methyl}-2,3-dihydro-1H-inden-5-yl)-3-(7-cyclopropyl-1,4-dimethyl-1H-benzotriazol-5-yl)propanoic acid] are 0.01 to 0.03 µM and 3 to 5.
Taken in the same sequence, the figures for `CC[C@@H]1CN(Cc2cc([C@H](CC(=O)O)c3cc(C4CC4)c4c(nnn4C)c3C)cc3c2CCC3)S(=O)(=O)c2cc(Cl)cnc2O1` [Example 40, (3S)-3-(7-{[(4R)-8-Chloro-4-ethyl-1,1-dioxido-3,4-dihydro-2H-pyrido[2,3-b][1,4,5]oxathiazepin-2-yl]methyl}-2,3-dihydro-1H-inden-5-yl)-3-(7-cyclopropyl-1,4-dimethyl-1H-benzotriazol-5-yl)propanoic acid] were 0.01 to 0.03 µM and 3 to 5.
`CC[C@@H]1CN(Cc2cc([C@H](CC(=O)O)c3cc(C4CC4)c4c(nnn4C)c3C)cc3ccsc23)S(=O)(=O)c2cc(Cl)cnc2O1` [Example 41, (3S)-3-(7-{[(4R)-8-Chloro-4-ethyl-1,1-dioxido-3,4-dihydro-2H-pyrido[2,3-b][1,4,5]oxathiazepin-2-yl]methyl}-1-benzothiophen-5-yl)-3-(7-cyclopropyl-1,4-dimethyl-1H-benzotriazol-5-yl)propanoic acid] came in with a 50% inhibitory concentration (IC50) in assay [1] of no more than 0.01 µM. Further, the fold induction at 0.4 µM in assay [2] was greater than 5.
The corresponding values for `Cc1c([C@H](CC(=O)O)c2cc3c(c(CN4CC5(CC5)Oc5ncc(Cl)cc5S4(=O)=O)c2)CCC3)ccc2c1nnn2C` [Example 42, (3R)-3-{7-[(8′-Chloro-1′,1′-dioxido-spiro[cyclopropane-1,4′-pyrido[2,3-b][1,4,5]oxathiazepine]-2′(3′H)-yl)methyl]-2,3-dihydro-1H-inden-5-yl}-3-(1,4-dimethyl-1H-benzotriazol-5-yl)propanoic acid] are no more than 0.01 µM and greater than 5.
The corresponding values for `Cc1c([C@@H](CC(=O)O)c2cc3c(c(CN4CC5(CC5)Oc5ncc(Cl)cc5S4(=O)=O)c2)CCC3)ccc2c1nnn2C` [Example 43, (3S)-3-{7-[(8′-Chloro-1′,1′-dioxido-spiro[cyclopropane-1,4′-pyrido[2,3-b][1,4,5]oxathiazepine]-2′(3′H)-yl)methyl]-2,3-dihydro-1H-inden-5-yl}-3-(1,4-dimethyl-1H-benzotriazol-5-yl)propanoic acid] are no more than 0.01 µM and greater than 5.
Taken in the same sequence, the figures for `CC[C@@H]1CN(Cc2cc([C@@H](CC(=O)O)c3cc(C)c4c(nnn4C)c3C)cc3c2CCC3)S(=O)(=O)c2cc(Cl)cnc2O1` [Example 44, (3R)-3-(7-{[(4R)-8-Chloro-4-ethyl-1,1-dioxido-3,4-dihydro-2H-pyrido[2,3-b][1,4,5]oxathiazepin-2-yl]methyl}-2,3-dihydro-1H-inden-5-yl)-3-(1,4,7-trimethyl-1H-benzotriazol-5-yl)propanoic acid] were no more than 0.01 µM and 3 to 5.
In turn, `CC[C@@H]1CN(Cc2cc([C@@H](CC(=O)O)c3cc(OC(F)(F)F)c4c(nnn4C)c3C)cc3ccsc23)S(=O)(=O)c2cc(Cl)cnc2O1` [Example 45, (3R)-3-(7-{[(4R)-8-Chloro-4-ethyl-1,1-dioxido-3,4-dihydro-2H-pyrido[2,3-b][1,4,5]oxathiazepin-2-yl]methyl}-1-benzothiophen-5-yl)-3-[1,4-dimethyl-7-(trifluoromethoxy)-1H-benzotriazol-5-yl]propanoic acid] registered an IC50 in assay [1] of no more than 0.01 µM. Further, the fold induction at 0.4 µM in assay [2] is greater than 5.

These data come from patent US20250092064A1, “BENZOTRIAZOLE COMPOUND” (DAIICHI SANKYO COMPANY, LIMITED, priority 2022, published 2025).
